Data on three compounds can be found in PMC7747594, “Protease-activated receptor-2 ligands reveal orthosteric and allosteric mechanisms of receptor inhibition” (Communications Biology, 2020).

For test [1], the target named is T1, hPAR2 (Homo sapiens, UniProt P55085).
T1 sequence (P55085 26-397): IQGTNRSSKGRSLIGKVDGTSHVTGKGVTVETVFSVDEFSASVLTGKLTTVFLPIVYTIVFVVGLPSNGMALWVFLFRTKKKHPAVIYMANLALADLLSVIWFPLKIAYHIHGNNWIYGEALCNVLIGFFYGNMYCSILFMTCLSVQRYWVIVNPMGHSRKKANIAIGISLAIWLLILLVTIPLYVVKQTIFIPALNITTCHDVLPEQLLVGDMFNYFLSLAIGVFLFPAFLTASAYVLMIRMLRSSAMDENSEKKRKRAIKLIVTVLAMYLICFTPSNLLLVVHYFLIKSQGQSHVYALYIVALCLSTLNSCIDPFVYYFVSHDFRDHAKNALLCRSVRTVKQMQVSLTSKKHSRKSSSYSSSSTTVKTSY
Put plainly: Ca^2+ flux assay, inhibition of tryptase activation in 1321N1-hPAR2 cells. In kind it is cell-based. The conditions noted are these: 1 µM Vorapaxar. The method, then:
For evaluation of Ca^2+ mobilisation, 1321N1-hPAR2 cells were seeded in 384-well CellBIND plates (Corning) at 4000 cells per well in DMEM containing 10% FBS and incubated for 18–24 hours at 37 °C, 5% CO2 and 95% humidity. Cells were loaded with Fluo-8 NW calcium dye (AAT Bioquest) for 30 min at 37 °C before compounds in Hank’s balanced salt solution (HBSS, ThermoFisher Scientific) with 20 mM HEPES (ThermoFisher Scientific), 0.1% bovine serum albumin (BSA, Sigma) and 0.5% DMSO were added and simultaneously evaluated for changes in intracellular [Ca^2+] using FLIPR TETRA (Molecular Devices) to detect agonism. For each concentration, the difference between the maximum peak Ca^2+ response and baseline response is reported. […] Inhibition of Ca^2+ release on rat PAR2 was measured in the same way using 10 000 KNRK cells per well seeded in poly-D-lysine coated 384-well plates (Greiner), 30 min preincubation with the compound before activation of PAR2 with EC80 of SLIGRL-NH2 (120 µM) and real-time detection of Ca^2+. […] Intracellular [Ca^2+] flux was measured using FLIPR TETRA (Molecular Devices) and the difference between the maximum peak Ca^2+ response and baseline response is reported.

For test [2], the target named is T1, hPAR2. Kind of test: Schild and allosteric model analysis of Ca^2+ mobilisation in CHO-hPAR2 cells (2f-LIGRL-NH2 or trypsin). Format: cell-based. The conditions noted are these: for linear Schild regression slope: Figure R1; for logα / logβ: operational model of allosterism. The method, then:
Cells were loaded with Fluo-8 NW calcium dye (AAT Bioquest) for 30 min at 37 °C before compounds in Hank’s balanced salt solution (HBSS, ThermoFisher Scientific) with 20 mM HEPES (ThermoFisher Scientific), 0.1% bovine serum albumin (BSA, Sigma) and 0.5% DMSO were added and simultaneously evaluated for changes in intracellular [Ca^2+] using FLIPR TETRA (Molecular Devices) to detect agonism. For each concentration, the difference between the maximum peak Ca^2+ response and baseline response is reported. […] Antagonism experiments were also carried out on 1321N1-PAR2[WT], 1321N1-PAR2[F154A], and 1321N1-PAR2[G157C] as described. Experiments with trypsin in 1321N1-hPAR2 cells were performed in the presence of 1 µM Vorapaxar (Chemtronica) to remove any interference of PAR1 activity. […] Antagonism experiments for CHO-hPAR2 and HT-29 cells were performed in 96-well plates at 30,000 cells/well. Cells were loaded with Fluo-3 AM calcium dye (Sigma-Aldrich) for 60 min at 37 °C in HBSS with 1% FBS, 0.2% pluronic acid, 20 mM HEPES and 2.5 mM probenecid prior to the addition of antagonist. The antagonist was pre-incubated for 60 min at 37 °C followed by the addition of bovine trypsin (30 nM) at EC80. Intracellular [Ca^2+] flux was measured using FLIPR TETRA (Molecular Devices) and the difference between the maximum peak Ca^2+ response and baseline response is reported.
Binding data were analysed using the One site – Fit Ki model in GraphPad Prism 8 (GraphPad Software) to determine binding affinity. Pharmacology in vitro potency data was analysed with a 4-parameter logistic fit using the equation y = Bottom + (Top − Bottom)/[…] where y is the response, x is the 10-logarithm of the drug concentration, Bottom is no response and Top is full response in GraphPad Prism 8 or Genedata Screener (Genedata). pEC50 and pIC50 data are presented as mean ± standard error of the mean (s.e.m.) derived from the number of independent experiments stated. Schild slope analysis was calculated using Graphpad Prism 8 Gaddum/Schild EC50 global fitting (shared model parameters between all data sets) competitive model. […] Schild slope quantifies the shifts in agonist response in the presence of antagonist, a Schild slope of 1 indicates the antagonist is competitive and extra-sum-of-squares F-test (p < 0.05) was used to compare the calculated Schild slope against a hypothetical Schild slope of 1. […] The relative activity was calculated using (EmaxEC50’)/(Emax’EC50) with the Hill slope help constant at 1. EC50’ and Emax’ denote the EC50 and Emax in the absence of allosteric modulator, while EC50 and Emax denote those measured in the presence of allosteric modulator. When the Hill slope = 1, the relative activity plot approaches an asymptote corresponding to the estimate of the γ value.

Setting [3] is: against 2f-LIGRL-NH2, Gaddum/Schild EC50 global fitting, CHO-hPAR2 cells.
Where [4] appears, read: against trypsin, Gaddum/Schild EC50 global fitting, CHO-hPAR2 cells.
Where [5] appears, read: 2f-LIGRL-NH2, Ca^2+ mobilisation.

Take `C[C@@H](C1CCCCC1)n1c(-c2cc3c(cc2Br)OCO3)nc2cc(C(=O)Nc3ccncc3)ccc21` [AZ2623]: at hPAR2 [1], the “inhibition of tryptase-induced Ca^2+ response” value is “only partial inhibition at low”.
For the compound `C[C@@H](C1CCCCC1)n1c(-c2cc3c(cc2Br)OCO3)nc2cc(C(=O)Nc3ccc(C#N)cc3)ccc21` [AZ3451], the “γ value estimated from relative activity” value at hPAR2 [2] (2f-LIGRL-NH2) is given as 0.002; at hPAR2 [2] (trypsin), 0.09. The “linear Schild regression slope” value is 0.4 at hPAR2 [2] (2f-LIGRL-NH2, CHO-hPAR2 cells) and 0.2 on hPAR2 [2] (trypsin, CHO-hPAR2 cells). Moreover, the Schild slope at hPAR2 [2] (setting [3]) worked out at 0.4; on hPAR2 [2] (setting [4]) it was 0.3. Further, the logα was −1.98 ± 0.11 at hPAR2 [2] (setting [5]) and −1.19 ± 0.07 on hPAR2 [2] (trypsin, Ca^2+ mobilisation). Moreover, the logβ on hPAR2 [2] (setting [5]) is listed as −0.28 ± 0.07; at hPAR2 [2] (trypsin, Ca^2+ mobilisation) it was −0.66 ± 0.08. Besides, the “inhibition of tryptase-induced Ca^2+ response” value at hPAR2 [1] is “only partial inhibition at low”.
As to `CCCc1cc(F)ccc1C(O)c1ncc[nH]1` (stereo not shown) [AZ8838], the “linear Schild regression slope” value was found to be 1.0 on hPAR2 [2] (2f-LIGRL-NH2, CHO-hPAR2 cells) and 0.8 at hPAR2 [2] (trypsin, CHO-hPAR2 cells). The Schild slope turned out to be 1.1 at hPAR2 [2] (setting [3]) and 0.9 on hPAR2 [2] (setting [4]).
